From ChEMBL document CHEMBL1150412, “1,5-Diphenylpyrrole derivatives as antimycobacterial agents. Probing the influence on antimycobacterial activity of lipophilic substituents at the phenyl rings” (J Med Chem, 2008) come the findings set out here.

The subject of series [1] is Mycobacterium avium. In words: Antimycobacterial activity against Mycobacterium avium CIP 103317. The class given is functional.
Series [2] can be described thus: Protection index, ratio of MNTD50 for african green monkey Vero cells to MIC for Mycobacterium tuberculosis 103471. The class given is functional.
In series [3] the test system is Vero. The series can be described thus: Cytotoxicity against african green monkey Vero cells after 5 days. In kind it is cell-based. As to conditions: chlorocebus sabaeus, 120 h.
The subject of series [4] is Mycobacterium tuberculosis. The series can be described thus: Antimycobacterial activity against Mycobacterium tuberculosis 103471. The class given is functional.
Series [5] concerns Mycobacterium tuberculosis. The series can be described thus: Antimycobacterial activity against Mycobacterium tuberculosis H37Rv. The class given is functional.
Series [6] deals with Mycolicibacterium smegmatis. The series can be described thus: Antimycobacterial activity against Mycobacterium smegmatis CIP 103599. In kind it is functional.
The test system of series [7] is Mycobacterium marinum. The series can be described thus: Antimycobacterial activity against Mycobacterium marinum CIP 6423. In kind it is functional.
The subject of series [8] is Mycobacterium tuberculosis. The series can be described thus: Antimycobacterial activity against Mycobacterium tuberculosis H37Rv in […] cells assessed as reduction in number of surviving bacteria at 0.5 ug/mL relative to control. The class given is functional.
Series [9] relates to Mycobacterium tuberculosis. In words: Antimycobacterial activity against Mycobacterium tuberculosis H37Rv in […] cells assessed as reduction in number of surviving bacteria at 1 ug/mL relative to control. In kind it is functional.
The test system of series [10] is Mycobacterium tuberculosis. In words: Antimycobacterial activity against Mycobacterium tuberculosis clinical isolates by agar dilution method. In kind it is functional.
Series [11] has as its system Mycobacterium tuberculosis. In words: Antimycobacterial activity against Mycobacterium tuberculosis H37Rv in […] cells assessed as reduction in number of surviving bacteria at 0.25 ug/mL relative to control. In kind it is functional.

SMILES strings stand for the structures. In brackets after ≈: the same amount, converted by molar mass. A value given as a limit tells only on which side of the number the result lay.

Consider `Cc1c(CN2CCN(C)CC2)cc(-c2ccc(Cl)cc2)n1-c1ccc(Cl)cc1`, for which the MIC came to 0.5 µg/mL (≈ 1.21 µM) in series [1]; 1 µg/mL (≈ 2.41 µM) in series [4]; 2 µg/mL (≈ 4.83 µM) in series [5]; 25 µg/mL (≈ 60.3 µM) in series [6]; 100 µg/mL (≈ 241 µM) in [7]. Besides, the Ratio in series [2] was 4. For the same molecule, the MNTD50 in series [3] is 4 µg/mL.
Consider `Cc1ccc(-c2cc(CN3CCSCC3)c(C)n2-c2ccc(F)cc2)cc1`, for which the minimum inhibitory concentration (MIC) in series [1] came to 8 µg/mL (≈ 21 µM); in series [4] it was 0.25 µg/mL (≈ 0.657 µM); in series [5], 0.125 µg/mL (≈ 0.328 µM); in series [6], 16 µg/mL (≈ 42 µM); in series [7] it was 8 µg/mL (≈ 21 µM). For the same molecule, the Ratio in series [2] came to 256. Further, in [3], the MNTD50 is 64 µg/mL.
Regarding `CCCc1ccc(-n2c(-c3ccc(F)cc3)cc(CN3CCSCC3)c2C)cc1`, the minimal inhibitory concentration (MIC) in series [1] was over 16 µg/mL; in [4], 1 µg/mL (≈ 2.45 µM); in series [6], 4 µg/mL (≈ 9.79 µM); in series [7] it was 16 µg/mL (≈ 39.2 µM). The Ratio in series [2] amounted to 4. Also, in [3], the MNTD50 came out at 4 µg/mL.
Turning to `CCc1ccc(-n2c(-c3ccc(F)cc3)cc(CN3CCSCC3)c2C)cc1`, the MIC in series [1] was over 16 µg/mL; in [4], 2 µg/mL (≈ 5.07 µM); in series [6] it was 2 µg/mL (≈ 5.07 µM); in series [7], over 16 µg/mL. Also, in series [2], the Ratio was determined as 1. This molecule yielded an MNTD50 in series [3] of 2 µg/mL.
In the case of `Cc1c(CN2CCSCC2)cc(-c2ccc(Cl)cc2)n1-c1ccc(C(C)C)cc1`, the Activity is 84.21% in [8], 98.74% in series [9] and 47.37% in series [11]. Moreover, the MIC is 0.25 µg/mL (≈ 0.588 µM) in [10]; 16 µg/mL (≈ 37.6 µM) in [1]; 0.25 µg/mL (≈ 0.588 µM) in series [4]; 0.25 µg/mL (≈ 0.588 µM) in [5]; over 16 µg/mL in [6]; 16 µg/mL (≈ 37.6 µM) in series [7]. In series [10], this molecule had an MIC50 of 0.25 µg/mL (≈ 0.588 µM). In series [10], the MIC90 amounted to 0.5 µg/mL (≈ 1.18 µM). Besides, in [2], the Ratio was 128. In series [3], this molecule registered an MNTD50 of 32 µg/mL.
For `CCc1ccc(-n2c(-c3ccc(Cl)cc3)cc(CN3CCSCC3)c2C)cc1`, the MIC in series [1] amounted to 16 µg/mL (≈ 38.9 µM); in series [4], 0.5 µg/mL (≈ 1.22 µM); in series [5], 0.5 µg/mL (≈ 1.22 µM); in series [6], 8 µg/mL (≈ 19.5 µM); in series [7] it was 4 µg/mL (≈ 9.73 µM). Further, in [2], the Ratio is listed as 32. Also, the MNTD50 in series [3] turned out to be 16 µg/mL.
Consider `CCCc1ccc(-c2cc(CN3CCSCC3)c(C)n2-c2ccc(F)cc2)cc1`, for which the MIC was over 16 µg/mL in series [1], 2 µg/mL (≈ 4.89 µM) in [4], over 16 µg/mL in series [6] and over 16 µg/mL in [7]. Besides, in series [2], the Ratio came to 2. In series [3], this molecule gave an MNTD50 of 4 µg/mL.
For `Cc1c(CN2CCSCC2)cc(-c2ccc(C(C)C)cc2)n1-c1ccc(F)cc1`, in [10], the MIC50 amounted to 0.5 µg/mL (≈ 1.22 µM). In series [10], this molecule had an MIC90 of 0.5 µg/mL (≈ 1.22 µM). Further, the MIC in [1] was 4 µg/mL (≈ 9.79 µM); in series [4] it was 0.25 µg/mL (≈ 0.612 µM); in series [5], 0.25 µg/mL (≈ 0.612 µM); in series [6] it was over 16 µg/mL; in series [7], 8 µg/mL (≈ 19.6 µM). In addition, the Ratio in [2] came to 128. In addition, the MNTD50 in [3] was 32 µg/mL.
For the molecule `Cc1ccc(-c2cc(CN3CCSCC3)c(C)n2-c2ccc(Cl)cc2)cc1`, the MIC in series [1] is 16 µg/mL (≈ 40.3 µM); in [4], 0.5 µg/mL (≈ 1.26 µM); in series [5], 0.5 µg/mL (≈ 1.26 µM); in series [6], over 16 µg/mL; in series [7], over 16 µg/mL. Also, the Ratio in [2] worked out at 128. The molecule further showed an MNTD50 in series [3] of 64 µg/mL.
Take `CCc1ccc(-c2cc(CN3CCSCC3)c(C)n2-c2ccc(Cl)cc2)cc1`: the MIC in series [1] stood at 16 µg/mL (≈ 38.9 µM); in series [4], 0.25 µg/mL (≈ 0.608 µM); in [5], 0.25 µg/mL (≈ 0.608 µM); in series [6], 8 µg/mL (≈ 19.5 µM); in series [7], 8 µg/mL (≈ 19.5 µM). Moreover, in series [2], the Ratio is reported as 64. For the same molecule, the MNTD50 in series [3] worked out at 16 µg/mL.
`Cc1ccc(-n2c(-c3ccc(Cl)cc3)cc(CN3CCSCC3)c2C)cc1`: the minimum inhibitory concentration (MIC) is over 16 µg/mL in [1]; 0.5 µg/mL (≈ 1.26 µM) in series [4]; 0.5 µg/mL (≈ 1.26 µM) in [5]; 16 µg/mL (≈ 40.3 µM) in series [6]; 16 µg/mL (≈ 40.3 µM) in series [7]. Moreover, in series [2], the Ratio came to 32. For the same molecule, in series [3], the MNTD50 came to 16 µg/mL.
As for `CCCc1ccc(-n2c(-c3ccc(Cl)cc3)cc(CN3CCSCC3)c2C)cc1`, the results for the Activity in series [8], in series [9] and in series [11] were 85.79%, 98.79% and 21.05%, respectively. In series [10], this molecule came in with an MIC50 of 0.5 µg/mL (≈ 1.18 µM). This molecule also came in with an MIC90 in [10] of 1 µg/mL (≈ 2.35 µM). For the same molecule, the minimal inhibitory concentration (MIC) was 16 µg/mL (≈ 37.6 µM) in series [1]; 0.25 µg/mL (≈ 0.588 µM) in series [4]; 0.25 µg/mL (≈ 0.588 µM) in series [5]; over 16 µg/mL in series [6]; 16 µg/mL (≈ 37.6 µM) in [7]. Besides, the Ratio in [2] worked out at 128. The molecule also yielded an MNTD50 in series [3] of 32 µg/mL.
`CCCc1ccc(-c2cc(CN3CCSCC3)c(C)n2-c2ccc(Cl)cc2)cc1`: the minimum inhibitory concentration (MIC) in [1] was 4 µg/mL (≈ 9.41 µM); in series [4] it was 0.25 µg/mL (≈ 0.588 µM); in series [5], 0.125 µg/mL (≈ 0.294 µM); in [6] it was over 16 µg/mL; in [7] it was 4 µg/mL (≈ 9.41 µM). The Ratio in series [2] came to 64. This molecule gave an MNTD50 in series [3] of 16 µg/mL.
In the case of `CCc1ccc(-c2cc(CN3CCSCC3)c(C)n2-c2ccc(F)cc2)cc1`, the MIC in [1] is over 16 µg/mL; in series [4] it was 1 µg/mL (≈ 2.53 µM); in series [6] it was over 16 µg/mL; in series [7], over 16 µg/mL. Besides, the Ratio in [2] is 16. In addition, the MNTD50 in series [3] was determined as 16 µg/mL.
On to `Cc1c(CN2CCSCC2)cc(-c2ccc(F)cc2)n1-c1ccc(C(C)C)cc1`, for which the minimum inhibitory concentration (MIC) in [1] was over 16 µg/mL; in series [4], 16 µg/mL (≈ 39.2 µM); in [6] it was 8 µg/mL (≈ 19.6 µM); in [7], over 16 µg/mL. In series [2], the Ratio is listed as 0.5. The molecule further displayed an MNTD50 in series [3] of 8 µg/mL.
With `Cc1c(CN2CCSCC2)cc(-c2ccc(C(C)C)cc2)n1-c1ccc(Cl)cc1`, the minimal inhibitory concentration (MIC) in series [1] was 8 µg/mL (≈ 18.8 µM); in [4] it was 0.125 µg/mL (≈ 0.294 µM); in [5], 0.125 µg/mL (≈ 0.294 µM); in [6], 8 µg/mL (≈ 18.8 µM); in series [7], 4 µg/mL (≈ 9.41 µM). Moreover, the Ratio in series [2] is 64. This molecule also yielded an MNTD50 in series [3] of 8 µg/mL.
For the molecule `[H]/N=C(/N)N[C@H]1[C@H](O)[C@@H](O)[C@H](O[C@@H]2O[C@@H](C)[C@](O)(C=O)[C@H]2O[C@@H]2O[C@@H](CO)[C@H](O)[C@@H](O)[C@@H]2NC)[C@@H](N/C(N)=N\[H])[C@@H]1O` (stereo in doubt) [STREPTOMYCIN], the MIC in series [1] is 8 µg/mL (≈ 13.8 µM); in series [4] it was 0.5 µg/mL (≈ 0.86 µM); in series [5] it was 4 µg/mL (≈ 6.88 µM); in series [6], 8 µg/mL (≈ 13.8 µM); in [7] it was 32 µg/mL (≈ 55 µM). In series [2], the Ratio was over 128. The MNTD50 in [3] was over 64 µg/mL.
Regarding `NNC(=O)c1ccncc1` [ISONIAZID], the MIC in series [10] is 0.125 µg/mL (≈ 0.911 µM); in series [1], 32 µg/mL (≈ 233 µM); in series [4], 0.125 µg/mL (≈ 0.911 µM); in series [5] it was 0.25 µg/mL (≈ 1.82 µM); in series [6], 64 µg/mL (≈ 467 µM); in [7], 16 µg/mL (≈ 117 µM). Also, the MIC50 in series [10] is 0.125 µg/mL (≈ 0.911 µM). The molecule further registered an MIC90 in [10] of 0.25 µg/mL (≈ 1.82 µM). In addition, the Ratio in [2] was found to be 128. The same molecule came in with an MNTD50 in series [3] of 32 µg/mL.
With `CO[C@H]1/C=C/O[C@@]2(C)Oc3c(C)c(O)c4c(O)c(c(/C=N/N5CCN(C)CC5)c(O)c4c3C2=O)NC(=O)/C(C)=C\C=C\[C@H](C)[C@H](O)[C@@H](C)[C@@H](O)[C@@H](C)[C@H](OC(C)=O)[C@@H]1C` [RIFAMPIN], the Activity turned out to be 98.42% in series [8], 99.79% in [9] and 95.79% in series [11]. Besides, the minimum inhibitory concentration (MIC) in series [1] came to 0.25 µg/mL (≈ 0.304 µM); in [4], 0.25 µg/mL (≈ 0.304 µM); in [5], 0.25 µg/mL (≈ 0.304 µM); in [6] it was 32 µg/mL (≈ 38.9 µM); in [7] it was 0.5 µg/mL (≈ 0.608 µM). For the same molecule, the Ratio in series [2] came to 256. In series [3], this molecule gave an MNTD50 of 64 µg/mL.
